This series can be described thus: Particle size distribution of milled/micronized Compound 1 crystals. It is filed as physicochemical. Conditions: for Particle Size D50: median size; for Particle Size D90: size for which 90% of particles are equal or smaller. How it is done:
For example, Compound 1 crystals were milled (The Retsch Ultra centrifugal Mill ZM 200; Single pass, at 18,000 rpm using 0.25 mm screen) to a median particle size of about 20 micron. Table 3 presents the resultant distribution of particle sizes (Malvern 2000 with the Hydro 2000S wet accessory). The columns present the maximum size of particles in the cumulative percent total presented in the subscript at the header of the column. For example, the column D90 presents the size for which 90% of the particles have an equal or lesser size. The column D50 represents the median size—half of the particles have a greater size, and half of the particles have an equal or lesser size.
For example, Compound 1 crystals were micronized using a jet milling method (4″ Jet Mill, Venturi pressure=40, Mill pressure=100, Feed rate=1304 g/hour) to a median particle size of about 2 micron, as presented in Table 4. Particle size analysis was performed using a dry particle method (Sympatec Helos/KF Particle Size Analyzer).

SMILES strings stand for the structures.

`CC(=O)c1cc2c(o1)C(=O)c1ccccc1C2=O` [Sample A, 2-acetylnaphtho[2,3-b]furan-4,9-dione]: the “Particle Size D10” value worked out at 0.53 microns, the “Particle Size D50” value came out at 2.07 microns and the “Particle Size D90” value is recorded as 4.63 microns.
For `CC(=O)c1cc2c(o1)C(=O)c1ccccc1C2=O` [Sample B, 2-acetylnaphtho[2,3-b]furan-4,9-dione] the same measures were 2.3 microns, 20.2 microns and 48.9 microns.

The values above are taken from patent US10543189B2, “2-acetylnaphtho[2,3-b]furan -4,9-dione for use on treating cancer” (Boston Biomedical, Inc., priority 2013, dated 2020).
